Experiments:
[1] = organism: Homo sapiens; assay: Inhibition of cellular activity by neutrophil assay; format: functional
[2] = Inhibition of protein kinase A.
[3] = molecular target: Protein kinase C eta type (Homo sapiens, UniProt P24723); assay: Inhibition of protein kinase C eta
[4] = molecular target: Protein kinase C alpha type (Homo sapiens, UniProt P17252); assay: Inhibition of protein kinase C alpha
[5] = molecular target: T1, Protein kinase C beta type (Homo sapiens, UniProt P05771); assay: Inhibition of protein kinase C beta I
T1 sequence (P05771 whole entry): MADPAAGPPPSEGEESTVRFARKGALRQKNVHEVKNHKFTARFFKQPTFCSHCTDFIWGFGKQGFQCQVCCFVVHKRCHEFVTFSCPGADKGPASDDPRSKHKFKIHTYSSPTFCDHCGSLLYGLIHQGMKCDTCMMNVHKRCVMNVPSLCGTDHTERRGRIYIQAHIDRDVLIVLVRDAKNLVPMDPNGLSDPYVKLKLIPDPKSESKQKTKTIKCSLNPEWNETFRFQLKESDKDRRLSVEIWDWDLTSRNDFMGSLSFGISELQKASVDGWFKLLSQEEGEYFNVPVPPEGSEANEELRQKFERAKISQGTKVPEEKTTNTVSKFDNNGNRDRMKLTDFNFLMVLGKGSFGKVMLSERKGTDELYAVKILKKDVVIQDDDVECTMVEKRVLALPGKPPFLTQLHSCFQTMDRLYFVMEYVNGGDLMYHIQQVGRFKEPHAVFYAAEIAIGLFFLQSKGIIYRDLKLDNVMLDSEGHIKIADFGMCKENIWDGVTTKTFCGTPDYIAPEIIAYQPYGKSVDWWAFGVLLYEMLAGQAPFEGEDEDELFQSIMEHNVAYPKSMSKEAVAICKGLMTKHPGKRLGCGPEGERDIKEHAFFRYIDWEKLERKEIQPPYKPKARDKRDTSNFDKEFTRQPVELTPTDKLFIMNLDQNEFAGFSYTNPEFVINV

[6] = molecular target: T1, Protein kinase C beta type; assay: Inhibition of protein kinase C beta II
[7] = molecular target: Protein kinase C delta type (Homo sapiens, UniProt Q05655); assay: Inhibition of protein kinase C delta
Protein kinase C delta type, sequence (Q05655 whole entry): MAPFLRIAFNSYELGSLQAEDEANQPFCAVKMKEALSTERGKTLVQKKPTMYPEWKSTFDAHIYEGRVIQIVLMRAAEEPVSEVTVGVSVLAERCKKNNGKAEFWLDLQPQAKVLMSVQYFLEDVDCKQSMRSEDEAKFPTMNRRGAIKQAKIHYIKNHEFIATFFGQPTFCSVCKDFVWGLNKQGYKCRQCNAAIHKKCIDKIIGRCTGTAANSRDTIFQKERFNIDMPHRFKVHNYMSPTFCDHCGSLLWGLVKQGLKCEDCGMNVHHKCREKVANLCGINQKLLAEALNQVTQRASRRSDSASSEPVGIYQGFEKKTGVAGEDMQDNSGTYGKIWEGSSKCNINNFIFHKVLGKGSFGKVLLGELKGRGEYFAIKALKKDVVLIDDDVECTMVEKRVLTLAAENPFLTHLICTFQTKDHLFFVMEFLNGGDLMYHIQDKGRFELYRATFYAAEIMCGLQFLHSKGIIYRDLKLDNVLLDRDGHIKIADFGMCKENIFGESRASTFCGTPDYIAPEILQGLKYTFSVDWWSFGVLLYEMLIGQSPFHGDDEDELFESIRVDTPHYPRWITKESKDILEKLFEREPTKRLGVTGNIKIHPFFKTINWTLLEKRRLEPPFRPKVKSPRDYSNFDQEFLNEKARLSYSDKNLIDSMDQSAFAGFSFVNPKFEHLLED

[8] = molecular target: T2, Protein kinase C epsilon type (Homo sapiens, UniProt Q02156); assay: Inhibition of protein kinase C epsilon
T2 sequence (Q02156 whole entry): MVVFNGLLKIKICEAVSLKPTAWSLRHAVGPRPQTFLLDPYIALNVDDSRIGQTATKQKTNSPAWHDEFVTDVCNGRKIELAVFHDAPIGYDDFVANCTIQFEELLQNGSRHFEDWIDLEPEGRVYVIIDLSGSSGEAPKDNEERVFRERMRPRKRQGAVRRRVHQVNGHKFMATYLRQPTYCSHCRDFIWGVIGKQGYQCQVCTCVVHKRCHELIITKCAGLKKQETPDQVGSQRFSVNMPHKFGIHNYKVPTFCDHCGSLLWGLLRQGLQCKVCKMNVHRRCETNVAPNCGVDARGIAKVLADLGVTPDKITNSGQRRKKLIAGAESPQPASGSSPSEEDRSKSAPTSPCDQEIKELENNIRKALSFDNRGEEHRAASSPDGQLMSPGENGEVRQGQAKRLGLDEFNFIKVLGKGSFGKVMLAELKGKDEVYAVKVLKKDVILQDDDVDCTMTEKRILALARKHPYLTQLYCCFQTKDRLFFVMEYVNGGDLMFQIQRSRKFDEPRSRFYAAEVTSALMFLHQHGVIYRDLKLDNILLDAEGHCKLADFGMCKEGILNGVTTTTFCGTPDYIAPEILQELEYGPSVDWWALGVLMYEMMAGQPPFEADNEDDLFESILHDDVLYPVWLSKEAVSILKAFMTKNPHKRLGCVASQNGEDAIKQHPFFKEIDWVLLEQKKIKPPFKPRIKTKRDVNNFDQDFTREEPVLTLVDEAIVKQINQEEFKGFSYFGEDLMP

[9] = molecular target: Protein kinase C gamma type (Homo sapiens, UniProt P05129); assay: Inhibition of protein kinase C gamma

Protein kinase C eta type, sequence (P24723 whole entry): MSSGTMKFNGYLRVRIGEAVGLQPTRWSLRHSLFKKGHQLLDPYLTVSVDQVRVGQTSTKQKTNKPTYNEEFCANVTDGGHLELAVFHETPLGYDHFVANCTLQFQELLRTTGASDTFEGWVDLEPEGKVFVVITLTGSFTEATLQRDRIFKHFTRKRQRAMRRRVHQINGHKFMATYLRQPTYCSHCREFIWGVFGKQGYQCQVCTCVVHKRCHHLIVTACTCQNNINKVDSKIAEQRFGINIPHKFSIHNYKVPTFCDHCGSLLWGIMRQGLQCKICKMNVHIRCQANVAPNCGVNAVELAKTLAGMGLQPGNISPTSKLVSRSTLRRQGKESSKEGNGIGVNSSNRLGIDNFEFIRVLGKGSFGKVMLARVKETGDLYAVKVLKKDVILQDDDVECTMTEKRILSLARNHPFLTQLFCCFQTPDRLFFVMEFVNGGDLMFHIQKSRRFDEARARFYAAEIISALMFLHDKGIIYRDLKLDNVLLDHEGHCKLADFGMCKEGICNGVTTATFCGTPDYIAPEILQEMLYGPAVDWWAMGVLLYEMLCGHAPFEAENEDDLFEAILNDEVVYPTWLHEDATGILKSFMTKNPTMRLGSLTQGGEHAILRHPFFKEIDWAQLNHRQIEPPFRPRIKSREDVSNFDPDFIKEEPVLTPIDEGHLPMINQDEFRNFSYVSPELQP

Row | Structure (SMILES) | IC50 [2] [nM] | IC50 [3] [nM] | IC50 ([1]; Homo sapiens) [nM] | IC50 [7] [nM] | IC50 [9] [nM] | further results
1 | O=C(OC1CCCC1Cc1ccc(O)cc1)c1cc(O)c(C(=O)c2c(O)cccc2C(=O)O)c(O)c1 (stereo in doubt; anti) | > 50000 |  |  |  |  | IC50 [1]: 3100 nM
2 | COC(=O)c1cccc(O)c1C(=O)c1c(O)cc(C(=O)OC2CCCC2Cc2ccc(O)cc2)cc1O (stereo not drawn) | > 50000 |  |  |  |  | 
3 | COC(=O)c1cccc(O)c1C(=O)c1c(O)cc(C(=O)OC2CNCC2Cc2ccc(O)cc2)cc1O (stereo not drawn) |  | 50 |  |  |  | 
4 | O=C(NC1CCCC1OC(=O)c1cc(O)c(C(=O)c2c(O)cccc2C(=O)O)c(O)c1)c1ccc(O)cc1 (stereo not drawn) |  | 1 | > 10000 | 1 |  | 
5 | O=C(OC1CCCC1Cc1ccc(O)cc1)c1cc(O)c(C(=O)c2c(O)cccc2C(=O)O)c(O)c1 (stereo in doubt; syn) |  |  |  |  |  | IC50 [1]: 10000 nM

Continued by falling IC50 [2], values first:

Row | IC50 [2] [nM] | IC50 [3] [nM] | IC50 ([1]; Homo sapiens) [nM] | IC50 [7] [nM] | IC50 [9] [nM] | Structure (SMILES) | further results
6 | 50000 |  |  |  |  | O=C(OC1CCCC1Oc1ccc(O)cc1)c1cc(O)c(C(=O)c2c(O)cccc2C(=O)O)c(O)c1 (stereo not drawn) | 
7 | 320 | 20 | > 10000 | 5 | 40 | O=C(OC1CNCC1Cc1ccc(O)cc1)c1cc(O)c(C(=O)c2c(O)cccc2C(=O)O)c(O)c1 (stereo not drawn) | IC50 [8]: 1800 nM
8 | 70 | 4 | > 10000 | 5 | 12 | O=C(NC1CNCC1OC(=O)c1cc(O)c(C(=O)c2c(O)cccc2C(=O)O)c(O)c1)c1ccc(O)cc1 (stereo not drawn) | IC50 [4]: 22 nM; IC50 [5]: 10 nM; IC50 [6]: 33 nM; IC50 [8]: 10 nM
9 | 60 |  | > 10000 |  |  | O=C(NC1CNCCCC1OC(=O)c1cc(O)c(C(=O)c2c(O)cccc2C(=O)O)c(O)c1)c1ccc(O)cc1 (racemic) | 
10 | 40 | 3 |  | 16 | 10 | O=C(NC1CNCCCC1OC(=O)c1cc(O)c(C(=O)c2c(O)cccc2C(=O)O)c(O)c1)c1ccc(O)cc1 (single isomer, unassigned; (-)) | IC50 [4]: 30 nM; IC50 [5]: 10 nM; IC50 [6]: 10 nM

From ChEMBL document CHEMBL1129127, “Potent and selective PKC inhibitory 5-membered ring analogs of balanol with replacement of the carboxamide moiety” (Bioorg Med Chem Lett, 1996)
